Data as given in patent US20240246913A1, “2-CARBOXYL-INDOLE INHIBITORS OF METALLO-BETA-LACTAMASES” (Oxford University Innovation Limited, priority 2021, published 2024).
Like-named read-outs stand apart in the source and are kept apart here.

Legend:
IMP-1 = IMP-1 (Serratia marcescens, UniProt P52699); assay: MBL inhibition, FC-5 fluorescence assay, IMP-1; assay type: biochemical
Experimental: (§1) Inhibitors were tested using a panel of the clinically relevant B1 MBLs (NDM-1, VIM-1, -2 and IMP-1). Activities were assayed by monitoring the release of a fluorophore following the enzymatic breakdown of the cephalosporin FC-5 (https://pubs.acs.org/doi/abs/10.1021/jm400769b). FC-5 assays were conducted in clear bottomed 384 black well microplates (Greiner); the initial rate of reaction was assessed by monitoring the fluorescence intensity (λex=380 nm and λem=460 nm) using a Pherstar FS (BMG LabTech) plate reader. Initial rates of reaction were determined and dose-response analyses conducted in GraphPad Prism. Dose-response curves were fitted using the log(inhibitor) vs normalized response—variable slope model of GraphPad Prism 12. Each concentration point for routine screening was conducted with 4 intra-plate replicates.

[1] = Plasma protein binding, equilibrium dialysis, human plasma; assay type: in vitro ADME; conditions: pH 7.4, equilibrium dialysis (RED) 4 hours at 37° C., read-out: Plasma protein binding, fu, Human
Experimental: The fraction of unbound compound (fu) in plasma from human or other animal species was determined by equilibrium dialysis at 37° C. for 4 hours using the Rapid Equilibrium Dialysis (RED) device (ThermoFisher Scientific). The test compound at a concentration of 10 μM was added to plasma and dialyzed against isotonic phosphate buffer (67 mM, pH 7.4) over 4 hours at 37° C. After dialysis, compound concentrations in buffer and plasma were quantified by LC-MS/MS. In parallel the stability of the compound in plasma was determined by incubating drug-spiked plasma (10 μM) at 37° C. for 4 hours, meanwhile the control plasma sample was kept in the freezer. The concentration of the compound in both samples was quantified by LC-MS/MS (Waters Corp, Milford, MA, USA).

VIM-1 = VIM-1 (Pseudomonas aeruginosa, UniProt A0A0F7KYQ8); assay: MBL inhibition, FC-5 fluorescence assay, VIM-1; assay type: biochemical
Experimental: as §1

NDM-1 = NDM-1 (Klebsiella pneumoniae, UniProt C7C422); assay: MBL inhibition, FC-5 fluorescence assay, NDM-1; assay type: biochemical
Experimental: as §1

VIM-2 = VIM-2 (Escherichia coli, UniProt Q5U7L7); assay: MBL inhibition, FC-5 fluorescence assay, VIM-2; assay type: biochemical
Experimental: as §1

Escherichia coli NDM-1 = assay: Antibiotic susceptibility testing (MIC), EC NDM-1; assay type: cell-based; conditions: agar or broth dilution (CLSI/EUCAST)
Experimental: (§2) Antibiotic susceptibility testing was performed using the agar or broth dilution method, in line with the Clinical and Laboratory Standards Institute (CLSI) and European Committee on Antimicrobial Susceptibility Testing (EUCAST) requirements.

Escherichia coli NDM-7 = assay: Antibiotic susceptibility testing (MIC), EC NDM-7; assay type: cell-based; conditions: agar or broth dilution (CLSI/EUCAST)
Experimental: as §2

[2] = tested on: Acinetobacter baumannii NDM-1; assay: Antibiotic susceptibility testing (MIC), AB NDM-1; assay type: cell-based; conditions: agar or broth dilution (CLSI/EUCAST)
Experimental: as §2

[3] = FC-5 cephalosporin substrate, fluorescence, ranges of obtained pIC50, read-out: pIC50 IMP-1 (converted)
[4] = FC-5 cephalosporin substrate, ranges of obtained pIC50, read-out: pIC50 VIM-1 (converted)
[5] = FC-5 cephalosporin substrate, fluorescence, ranges of obtained pIC50, read-out: pIC50 NDM-1 (converted)
[6] = FC-5 cephalosporin substrate, ranges of obtained pIC50, read-out: pIC50 VIM-2 (converted)
[7] = pIC50 VIM-1, FC-5 cephalosporin substrate, ranges of obtained pIC50
[8] = pIC50 VIM-2, FC-5 cephalosporin substrate, ranges of obtained pIC50

Sequence of IMP-1 (P52699 19-246, looked up, species assumed): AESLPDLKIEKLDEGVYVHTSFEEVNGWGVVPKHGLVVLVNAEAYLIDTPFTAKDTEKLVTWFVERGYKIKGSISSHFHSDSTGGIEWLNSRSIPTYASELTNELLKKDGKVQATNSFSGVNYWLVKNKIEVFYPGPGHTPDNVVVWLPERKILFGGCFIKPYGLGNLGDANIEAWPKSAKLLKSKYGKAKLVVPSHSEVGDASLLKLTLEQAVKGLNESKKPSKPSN
Sequence of NDM-1 (C7C422 29-270, looked up, species assumed): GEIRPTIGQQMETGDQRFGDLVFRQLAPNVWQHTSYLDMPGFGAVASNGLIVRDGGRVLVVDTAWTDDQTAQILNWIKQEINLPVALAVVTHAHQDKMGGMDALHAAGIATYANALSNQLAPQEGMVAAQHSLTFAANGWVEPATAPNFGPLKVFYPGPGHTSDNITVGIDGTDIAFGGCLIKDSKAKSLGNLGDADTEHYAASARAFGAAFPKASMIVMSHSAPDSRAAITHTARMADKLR

| Compound | IC50 (IMP-1; [3]) | fraction unbound at 4 h, 10 μM [1] | IC50 (VIM-1; [4]) | IC50 (NDM-1; [5]) | IC50 (VIM-2; [6]) | MIC values EC NDM-1 (Escherichia coli NDM-1) | MIC values EC NDM-7 (Escherichia coli NDM-7) | MIC values AB NDM-1 [2] | IC50 (IMP-1) | IC50 (VIM-1; [7]) | IC50 (NDM-1) | IC50 (VIM-2; [8]) |
| --- | --- | --- | --- | --- | --- | --- | --- | --- | --- | --- | --- | --- |
| COc1cc(-c2c(C(=O)O)[nH]c3c([C@H](C)N4CC5(CC(CN)C5)OC4=O)cccc23)ccn1 (stereo partly drawn) [IC-20, 7-((1S)-1-(2-(aminomethyl)-6-oxo-5-oxa-7-azaspiro[3.4]octan-7-yl)ethyl)-3-(2-methoxypyridin-4-yl)-1H-indole-2-carboxylic acid] | > 0.01 µM | – | 0.001 to 0.01 µM | 0.0001 to 0.001 µM | 0.0001 to 0.001 µM | A (A = MIC values ≤ 1) | A (A = MIC values ≤ 1) | B (B MIC values 2 ÷ 8) | – | – | – | – |
| C[C@@H](c1cccc2c(-c3ccc(CN4CCOCC4)nc3)c(C(=O)O)[nH]c12)n1cc(CN2CC(N)C2)oc1=O [IC-52, 7-[(1S)-1-{5-[(3-aminoazetidin-1-yl)methyl]-2-oxo-2,3-dihydro-1,3-oxazol-3-yl}ethyl]-3-{6-[(morpholin-4-yl)methyl]pyridin-3-yl}-1H-indole-2-carboxylic acid] | > 0.01 µM | – | > 0.01 µM | < 0.0001 µM | 0.001 to 0.01 µM | B (B MIC values 2 ÷ 8) | B (B MIC values 2 ÷ 8) | C (C = MIC values > 8) | – | – | – | – |
| CC(c1cccc2c(-c3ccc(CS(C)(=O)=O)c(F)c3)c(C(=O)O)[nH]c12)n1cc(CCC[N+](C)(C)C)oc1=O (centres unmarked) [IC-76, 3-(3-(1-(2-carboxy-3-(3-fluoro-4-((methylsulfonyl)methyl)phenyl)-1H-indol-7-yl)ethyl)-2-oxo-2,3-dihydrooxazol-5-yl)-N,N,N-trimethylpropan-1-aminium] | – | – | – | – | – | – | – | – | > 0.01 µM | > 0.01 µM | 0.001 to 0.01 µM | > 0.01 µM |
| CC(c1cccc2c(-c3ccc(CS(C)(=O)=O)c(F)c3)c(C(=O)O)[nH]c12)n1cc(CN2CC[C@H](N)C2)oc1=O (stereo partly drawn) [IC-81, 7-[1-[5-[[(3S)-3-Aminopyrrolidin-1-yl]methyl]-2-oxo-oxazol-3-yl]ethyl]-3-[3-fluoro-4-(methylsulfonylmethyl)phenyl]-1H-indole-2-carboxylic acid] | > 0.01 µM | – | 0.001 to 0.01 µM | 0.0001 to 0.001 µM | 0.001 to 0.01 µM | – | – | – | – | – | – | – |
| CC(c1cccc2c(-c3ccc(CS(C)(=O)=O)c(F)c3)c(C(=O)O)[nH]c12)n1cc(CN2CC[C@@H](N)C2)oc1=O (stereo partly drawn) [IC-82, 7-[1-[5-[[(3R)-3-Aminopyrrolidin-1-yl]methyl]-2-oxo-oxazol-3-yl]ethyl]-3-[3-fluoro-4-(methylsulfonylmethyl)phenyl]-1H-indole-2-carboxylic acid] | > 0.01 µM | – | 0.001 to 0.01 µM | 0.0001 to 0.001 µM | 0.0001 to 0.001 µM | – | – | – | – | – | – | – |
| CS(=O)(=O)Cc1ccc(-c2c(C(=O)O)[nH]c3c(COCc4ccc(CN)cc4)cccc23)cc1F [IC-85, 7-(((4-(Ammoniomethyl)benzyl)oxy)methyl)-3-(3-fluoro-4-((methylsulfonyl)methyl)phenyl)-1H-indole-2-carboxylate] | > 0.01 µM | – | > 0.01 µM | 0.0001 to 0.001 µM | > 0.01 µM | – | – | – | – | – | – | – |
| CC(OC(=O)Nc1ccc(CN)cc1)c1cccc2c(-c3ccc(CS(C)(=O)=O)c(F)c3)c(C(=O)O)[nH]c12 (centres unmarked) [IC-96, 7-(1-(((4-(Aminomethyl)phenyl)carbamoyl)oxy)ethyl)-3-(3-fluoro-4-((methylsulfonyl)methyl)phenyl)-1H-indole-2-carboxylic acid] | > 0.01 µM | – | > 0.01 µM | 0.001 to 0.01 µM | 0.001 to 0.01 µM | – | – | – | – | – | – | – |
| CC(c1cccc2c(-c3ccc(CS(C)(=O)=O)c(F)c3)c(C(=O)O)[nH]c12)N1C(=O)c2cc(O)c(O)cc2C1=O (centres unmarked) [IC-98, 7-[1-(5,6-Dihydroxy-1,3-dioxo-2,3-dihydro-1H-isoindol-2-yl)ethyl]-3-[3-fluoro-4-(methanesulfonylmethyl)phenyl]-1H-indole-2-carboxylic acid] | > 0.01 µM | – | > 0.01 µM | > 0.01 µM | > 0.01 µM | – | – | – | – | – | – | – |
| CC(NC(=O)Oc1ccc(CN)cc1)c1cccc2c(-c3ccc(CS(C)(=O)=O)c(F)c3)c(C(=O)O)[nH]c12 (centres unmarked) [IC-101, 7-(1-(((4-(aminomethyl)phenoxy)carbonyl)amino)ethyl)-3-(3-fluoro-4-((methylsulfonyl)methyl)phenyl)-1H-indole-2-carboxylic acid] | – | – | – | – | – | – | – | – | > 0.01 µM | > 0.01 µM | 0.001 to 0.01 µM | 0.001 to 0.01 µM |
| C[C@@H](c1cccc2c(-c3ccc(CS(C)(=O)=O)c(F)c3)c(-c3nnn[nH]3)[nH]c12)N1C[C@]2(C[C@@H](CN)C2)OC1=O [IC-107, (2S,4r)-2-(Aminomethyl)-7-((S)-1-(3-(3-fluoro-4-((methylsulfonyl)methyl)phenyl)-2-(1H-tetrazole-5-yl)-1H-indol-7-yl)ethyl)-5-oxa-7-azaspiro[3.4]octan-6-one] | > 0.01 µM | – | 0.001 to 0.01 µM | 0.001 to 0.01 µM | > 0.01 µM | – | – | – | – | – | – | – |

Now from value to molecule, other results behind:

| IC50 (IMP-1; [3]) | fraction unbound at 4 h, 10 μM [1] | IC50 (VIM-1; [4]) | IC50 (NDM-1; [5]) | IC50 (VIM-2; [6]) | Compound | MIC values EC NDM-1 (Escherichia coli NDM-1) | MIC values EC NDM-7 (Escherichia coli NDM-7) | MIC values AB NDM-1 [2] | IC50 (IMP-1) | IC50 (VIM-1; [7]) | IC50 (NDM-1) | IC50 (VIM-2; [8]) |
| --- | --- | --- | --- | --- | --- | --- | --- | --- | --- | --- | --- | --- |
| > 0.01 µM | 0.05 to 0.25 | > 0.01 µM | > 0.01 µM | 0.001 to 0.01 µM | CC(c1cccc2c(-c3ccc(CS(C)(=O)=O)c(F)c3)c(C(=O)O)[nH]c12)n1cc(CNS(N)(=O)=O)nn1 (centres unmarked) [IC-8, 3-(3-Fluoro-4-((methylsulfonyl)methyl)phenyl)-7-(1-(4-((sulfamoylamino)methyl)-1H-1,2,3-triazol-1-yl)ethyl)-1H-indole-2-carboxylic acid] | – | – | – | – | – | – | – |
| > 0.01 µM | – | > 0.01 µM | 0.001 to 0.01 µM | > 0.01 µM | CC(c1cccc2c(-c3ccc(CS(C)(=O)=O)c(F)c3)c(C(=O)O)[nH]c12)n1cc(CO)oc1=O (centres unmarked) [IC-78, 3-(3-Fluoro-4-((methylsulfonyl)methyl)phenyl)-7-(1-(5-(hydroxymethyl)-2-oxooxazol-3(2H)-yl)ethyl)-1H-indole-2-carboxylic acid] | – | – | – | – | – | – | – |
| > 0.01 µM | – | > 0.01 µM | > 0.01 µM | > 0.01 µM | CC(OCc1cnn[nH]1)c1cccc2c(-c3ccc(CS(C)(=O)=O)c(F)c3)c(C(=O)O)[nH]c12 (centres unmarked) [IC-91, 7-(1-((1H-1,2,3-triazol-5-yl)methoxy)ethyl)-3-(3-fluoro-4-((methylsulfonyl)methyl)phenyl)-1H-indole-2-carboxylic acid] | – | – | – | – | – | – | – |
| > 0.01 µM | – | > 0.01 µM | 0.001 to 0.01 µM | 0.001 to 0.01 µM | CC(Nc1ncc(CCCN)o1)c1cccc2c(-c3ccc(CS(C)(=O)=O)c(F)c3)c(C(=O)O)[nH]c12 (centres unmarked) [IC-93, 7-(1-((5-(3-Aminopropyl)oxazol-2-yl)amino)ethyl)-3-(3-fluoro-4-((methylsulfonyl)methyl)phenyl)-1H-indole-2-carboxylic acid] | – | – | – | – | – | – | – |
| > 0.01 µM | – | > 0.01 µM | 0.001 to 0.01 µM | 0.001 to 0.01 µM | CC(Nc1ncc(CCN)o1)c1cccc2c(-c3ccc(CS(C)(=O)=O)c(F)c3)c(C(=O)O)[nH]c12 (centres unmarked) [IC-94, 7-(1-((5-(2-aminoethyl)oxazol-2-yl)amino)ethyl)-3-(3-fluoro-4-((methylsulfonyl)methyl)phenyl)-1H-indole-2-carboxylic acid] | – | – | – | – | – | – | – |
| > 0.01 µM | – | > 0.01 µM | 0.001 to 0.01 µM | 0.001 to 0.01 µM | CC(NC(=O)Nc1ccc(CN)cc1)c1cccc2c(-c3ccc(CS(C)(=O)=O)c(F)c3)c(C(=O)O)[nH]c12 (centres unmarked) [IC-102, 7-(1-(3-(4-(aminomethyl)phenyl)ureido)ethyl)-3-(3-fluoro-4-((methylsulfonyl)methyl)phenyl)-1H-indole-2-carboxylic acid] | – | – | – | – | – | – | – |
